Results from patent US12152016B2, “Aryl hydrocarbon receptor modulators and uses thereof” (Beth Israel Deaconess Medical Center, Inc., priority 2018, dated 2024).

Tests used:
[1] = system: AHR-dependent transcription of the CYP1A1 gene; assay: CYP1A1 induction in mouse macrophages; type: cell-based
Procedure: (§1) Mouse macrophages were also used to test AHR-dependent transcription of the CYP1A1 gene in vivo. Finally, the activity of exemplary compounds of Formula (I) described herein was tested in the human […] cell line U937. The U937 cell line is derived from a patient with diffuse histiocytic lymphoma. Tables 2-4 summarize structure-activity relationship data collected for exemplary, non-limiting compounds of Formula (I) described herein.

[2] = system: AHR-dependent transcription of the CYP1A1 gene; assay: CYP1A1 induction in human U937 cells; type: cell-based; conditions: Human U937, 1 μM
Procedure: as §1

[3] = target: T1, aryl hydrocarbon receptor (AHR) (Homo sapiens, UniProt P35869); assay: XRE-driven luciferase reporter assay, human HepG2; conditions: for XRE luciferase Emax (footnote c): Emax defined as fold increase at highest concentration tested (10 μM)
T1 sequence (P35869 11-848): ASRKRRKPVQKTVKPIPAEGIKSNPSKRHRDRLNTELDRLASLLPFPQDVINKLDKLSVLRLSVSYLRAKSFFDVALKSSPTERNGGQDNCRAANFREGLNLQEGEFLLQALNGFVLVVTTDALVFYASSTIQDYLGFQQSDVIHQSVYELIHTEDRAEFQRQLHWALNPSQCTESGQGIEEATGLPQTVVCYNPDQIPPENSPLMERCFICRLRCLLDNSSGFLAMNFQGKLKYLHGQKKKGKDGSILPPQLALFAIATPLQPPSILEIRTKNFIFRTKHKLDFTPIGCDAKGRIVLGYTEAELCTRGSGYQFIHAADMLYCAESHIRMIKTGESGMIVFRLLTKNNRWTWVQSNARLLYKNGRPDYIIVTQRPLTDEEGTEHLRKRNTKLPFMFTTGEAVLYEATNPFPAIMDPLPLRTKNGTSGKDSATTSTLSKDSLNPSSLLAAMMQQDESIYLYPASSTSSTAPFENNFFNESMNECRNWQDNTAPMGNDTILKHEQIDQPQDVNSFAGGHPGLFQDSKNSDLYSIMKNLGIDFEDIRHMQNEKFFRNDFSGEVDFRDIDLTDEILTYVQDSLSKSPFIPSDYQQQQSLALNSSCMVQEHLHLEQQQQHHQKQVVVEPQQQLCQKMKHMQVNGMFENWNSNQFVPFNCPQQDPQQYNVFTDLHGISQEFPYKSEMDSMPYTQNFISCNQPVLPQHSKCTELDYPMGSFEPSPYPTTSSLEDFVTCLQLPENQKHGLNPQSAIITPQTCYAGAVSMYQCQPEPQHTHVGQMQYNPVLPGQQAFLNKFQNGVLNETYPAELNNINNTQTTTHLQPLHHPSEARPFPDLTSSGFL
Procedure: The Human HepG2 cell line is a human liver cancer cell line, and provide a relevant in vitro AHR activity model. These Hep2G cells have been modified to stably express an AHR-responsive (XRE) firefly luciferase reporter gene to give Hep2G-XRE cells. The expression of luciferase should primarily reflect AHR-dependent transcription controlled by XRE.
Transfected cells were treated with AhR agonist (10^−5-10^−12) for 4.5 h in full medium. Cells were lysed and luciferase was activated using the Luciferase Assay System (Promega). Luminescence signals were measured with a FluroStar Omega microplate reader. Luminescence signals of compound treated groups were normalized to vehicle (DMSO) treated control and plotted as concentration dependent fold changes.

[4] = Plasma stability (LCMS/MS); type: in vitro ADME; conditions: incubated in plasma
[5] = Liver microsomal stability (LCMS/MS); type: in vitro ADME; conditions: in the presence of liver microsomes
[6] = XRE luciferase EC50, Human HepG2, least square curve fitting, >10,000 = does not reach 50% of Emax of ITE at 10 μM (highest concentration tested)
[7] = XRE luciferase EC50 (footnote a), Human HepG2, EC50 defined as concentration induced 50% of Emax of ITE

| CYP1A1 induction (% of ITE ± SEM) ([1]; 50 nM) | CYP1A1 induction (% of ITE ± SEM) [2] | XRE luciferase Emax (footnote c) ([3]; Human HepG2) | EC50 [3, 6] [nM] | CYP1A1 induction (% of ITE ± SEM) ([1]; 5 μM) | plasma stability [4] | EC50 [3, 7] [nM] | liver microsomal stability [5] | XRE luciferase Emax (fold) ([3]; Human HepG2, fold over vehicle) | Structure (SMILES) |
| --- | --- | --- | --- | --- | --- | --- | --- | --- | --- |
| 14 ± 4 % of ITE | 48 ± 6 % of ITE |  | 680 | 90 ± 2 % of ITE |  |  |  | 117 | COC(=O)c1cccc(C(=O)c2n[nH]c3ccccc23)c1 [reference compound] |
| 1 ± 0.2 % of ITE | 194 ± 18 % of ITE | (87)^c fold |  | 27 ± 3 % of ITE |  | 2000 |  |  | COc1cccc(C(=O)c2n[nH]c3ccccc23)c1 [reference compound] |

The next lines start with the molecule.

| Structure (SMILES) | CYP1A1 induction (% of ITE ± SEM) ([1]; 50 nM) | CYP1A1 induction (% of ITE ± SEM) [2] | XRE luciferase Emax (footnote c) ([3]; Human HepG2) | EC50 [3, 6] [nM] | CYP1A1 induction (% of ITE ± SEM) ([1]; 5 μM) | plasma stability [4] | EC50 [3, 7] [nM] | liver microsomal stability [5] | XRE luciferase Emax (fold) ([3]; Human HepG2, fold over vehicle) |
| --- | --- | --- | --- | --- | --- | --- | --- | --- | --- |
| COc1cccc(C(=O)c2c[nH]c3ccccc23)c1 [Compound 9] | 9 ± 5 % of ITE | 101 ± 12 % of ITE | (25)^c fold | > 10000 |  |  |  |  |  |
| O=C(c1cccc(-c2ccccc2)n1)c1c[nH]c2ccccc12 [Compound 113, 1H-indol-3-yl-(6-phenyl-2-pyridyl)methanone] | 91 ± 7 % of ITE |  | (114)^c fold | 12 | 97 ± 9 % of ITE | stable | 12.1 | rapidly metabolized |  |
| COC(=O)c1cccc(C(=O)c2c(C)[nH]c3ccccc23)n1 [Compound 144, methyl 6-(2-methyl-1H-indole-3-carbonyl)pyridine-2-carboxylate] |  | 29 ± 14 % of ITE | (22)^c fold | > 10000 | 6 ± 2 % of ITE |  |  |  |  |
